Laboratory results taken from patent US5605905A, “Antitumoral compounds” (Universidad Complutense de Madrid, priority 1992, dated 1997).
Converted amounts (≈) assume the structure as drawn.

Key:
P-388 cells = test: Assay against P-388 cells (lymphoid neoplasm from DBA/2 mouse), cell count after three days; format: cell-based; details: P388, 72 h, 1×10^4 cells per well, three days of incubation, triplicate
Procedure: Compounds were diluted in DMSO/MeOH/Acetone (1:4.5:4.5) and they were tested at different concentrations. The solvent was allowed to evaporate before the cells were seeded.
The following antitumoral assay, employing the current screening protocol has been carried out using the following cell line:
P-388 (lymphoid neoplasm from DBA/2 mouse).
Assay Against P-388 Cells (Lymphoidneoplasm from DBA/2 Mouse )
P-388 cells were seeded into 16 mm wells at 1×10^4 cells per well in 1 ml aliquots of MEM 10C containing different concentrations of the compound. All determinations were carried out in triplicate. A separate set of cultures without drug was counted daily to ensure that the cells remained in exponential growth over the period of observation. After three days of incubation, cells were counted and the IC50 was determined.

Gram positive bacteria = details: background, literature; cited from earlier work
thymidylate synthetase = details: background, literature; cited from earlier work
[1] = background statement, no test described; cited from earlier work

SMILES	IC50 (P-388 cells)	also measured
CCc1cc2c([nH]c1=O)C(=O)c1ncc(C)cc1C2=O [Compound 7, 3-ethyl-6-methyl-1H-1,8-diazaanthracene-2,9,10-trione]	0.2 µg/mL (≈ 0.746 µM)	
CCCc1c2c([nH]c(=O)c1C)C(=O)c1[nH]c(=O)c(C)c(CCC)c1C2=O [Diazaquinomicyn A]		activity against Gram positive bacteria (Gram positive bacteria): good activity; capacity to inhibit the thymidylate synthetase (thymidylate synthetase): capacity to inhibit; antitumoral activity [1]: inactive
Cc1ccnc2c1C(=O)c1c(C)cc(=O)[nH]c1C2=O [Compound 4, 4,5-dimethyl-1H-1,8-diazaanthracene-2,9,10-trione]	1 µg/mL (≈ 3.93 µM)	
Cc1cc2c([nH]c1=O)C(=O)c1ccccc1C2=O [Compound 8, 3-Methyl-1H-1azaanthracene-2,9,10-trione]	0.2 µg/mL (≈ 0.836 µM)	
CCc1cnc2c(c1)C(=O)c1c(C)cc(=O)[nH]c1C2=O [Compound 5, 6-ethy-4-methyl-1H-1,8-diazaanthracene-2,9,10-trione]	0.5 µg/mL (≈ 1.86 µM)	
Cc1cc(=O)[nH]c2c1C(=O)c1c(-c3ccc(N(C)C)cc3)ccnc1C2=O [Compound 6, 5-(p-dimethylaminophenyl)-4-methyl-1H-1,8-diazaanthracene-2,9,10-trione]	1 µg/mL (≈ 2.78 µM)	

Now from value to compound, other results behind:

IC50 (P-388 cells)	SMILES	also measured
0.25 µg/mL (≈ 0.785 µM)	Cc1cc(=O)[nH]c2c1C(=O)C1=C(NC=CC1c1ccccc1)C2=O (centres unmarked) [Compound 2, 4-methyl-5-phenyl-5,8-dihydro-1H-1,8-diazaanthracene-2,9,10-trione]	
1 µg/mL (≈ 3.52 µM)	CCC1C(C)=CNC2=C1C(=O)c1c(C)cc(=O)[nH]c1C2=O (centres unmarked) [Compound 1, 4,6-dimethyl-5-5,8-dihydro-1H-1,8-diazaanthracene-2,9,10-trione]	
20 µg/mL (≈ 55.3 µM)	Cc1cc(=O)[nH]c2c1C(=O)C1=C(NC=CC1c1ccc(N(C)C)cc1)C2=O (centres unmarked) [Compound 3, 5-(4-Dimethylamino-phenyl) 4-methyl-5,8-dihydro-1H-1,8-diazaanthracene-2,9,10-trione]	
